According to ChEMBL document CHEMBL5356949, “Development of novel thiazolidine-2,4-dione derivatives as PPAR-γ agonists through design, synthesis, computational docking, MD simulation, and comprehensive in vitro and in vivo evaluation” (RSC Med Chem, 2023):
Calls of active or inactive are those of the source. The calls are words filed in the database; no cut-off is given here.

How the values were obtained:
C2C12 [1] = assay: Cytotoxicity against mouse C2C12 cells assessed as reduction in cell viability at 100 to 200 uM incubated for 24 hrs by MTT assay; format: toxicity, cell-based; details: c2c12, 24 h, dose 100-200 µM
Rattus norvegicus [2] = assay: Hypolipidemic activity against dexamethasone-induced Wistar rat model assessed as decrease in serum HDL-c level at 17.5 mg/kg, sc administered once daily for 11 days and fasted for 12 hrs at end of the experimental period; format: functional, organism-based; details: time 11.5 day
Rattus norvegicus [3] = assay: Antidiabetic activity against dexamethasone-induced Wistar rat model assessed as decrease in serum glucose level at 17.5 mg/kg, sc administered once daily for 11 days and fasted for 12 hrs at end of the experimental period; format: functional, organism-based; details: time 11.5 day
C2C12 [4] = assay: Upregulation of PPAR-gamma expression in mouse C2C12 cells by ELISA analysis; format: functional, cell-based; details: dose 6.25-100 µM
Rattus norvegicus [5] = assay: Hypolipidemic activity against dexamethasone-induced Wistar rat model assessed as decrease in serum triglyceride level at 17.5 mg/kg, sc administered once daily for 11 days and fasted for 12 hrs at end of the experimental period; format: functional, organism-based; details: time 11.5 day
Rattus norvegicus [6] = assay: Effect on serum ALT level in dexamethasone-induced Wistar rat model at 17.5 mg/kg, sc administered once daily for 11 days and fasted for 12 hrs at end of the experimental period by biochemical analysis; format: functional, organism-based; details: time 11.5 day
Rattus norvegicus [7] = assay: Hypolipidemic activity against dexamethasone-induced Wistar rat model assessed as decrease in serum LDL-c level at 17.5 mg/kg, sc administered once daily for 11 days and fasted for 12 hrs at end of the experimental period; format: functional, organism-based; details: time 11.5 day
Rattus norvegicus [8] = assay: Effect on serum AST level in dexamethasone-induced Wistar rat model at 17.5 mg/kg, sc administered once daily for 11 days and fasted for 12 hrs at end of the experimental period by biochemical analysis; format: functional, organism-based; details: time 11.5 day
Rattus norvegicus [9] = assay: Antidiabetic activity against dexamethasone-induced Wistar rat diabetic model assessed as restoration of histopathological changes at 17.5 mg/kg, sc administered once daily for 11 days and fasted for 12 hrs at end of the experimental period by hematoxylin and eosin staining based microscopic analysis; format: functional, organism-based; details: time 11.5 day
Rattus norvegicus [10] = assay: Antidiabetic activity against dexamethasone-induced Wistar rat model assessed as decrease in serum VLDL level at 17.5 mg/kg, sc administered once daily for 11 days and fasted for 12 hrs at end of the experimental period; format: functional, organism-based; details: time 11.5 day
C2C12 [11] = assay: Antidiabetic activity in mouse C2C12 cells assessed as increase in glucose uptake incubated for 30 mins; format: functional, cell-based
Rattus norvegicus [12] = assay: Hypolipidemic activity against dexamethasone-induced Wistar rat model assessed as decrease in serum TG level at 17.5 mg/kg, sc administered once daily for 11 days and fasted for 12 hrs at end of the experimental period; format: functional, organism-based; details: time 11.5 day
C2C12 [13] = assay: Upregulation of PPAR-gamma expression in mouse C2C12 cells at 1 uM by ELISA analysis; format: functional, cell-based
Rattus norvegicus [14] = assay: Hypolipidemic activity against dexamethasone-induced sc dosed Wistar rat model assessed as decrease in serum TG level administered once daily for 11 days and fasted for 12 hrs at end of the experimental period; format: functional, organism-based; details: time 11.5 day
Rattus norvegicus [15] = assay: Hypolipidemic activity against dexamethasone-induced sc dosed Wistar rat model assessed as decrease in serum triglyceride level administered once daily for 11 days and fasted for 12 hrs at end of the experimental period; format: functional, organism-based; details: time 11.5 day
Rattus norvegicus [16] = assay: Hypolipidemic activity against dexamethasone-induced sc dosed Wistar rat model assessed as decrease in serum HDL-c level administered once daily for 11 days and fasted for 12 hrs at end of the experimental period; format: functional, organism-based; details: time 11.5 day
Rattus norvegicus [17] = assay: Antidiabetic activity against dexamethasone-induced sc dosed Wistar rat diabetic model assessed as restoration of histopathological changes administered once daily for 11 days and fasted for 12 hrs at end of the experimental period by hematoxylin and eosin staining based microscopic analysis; format: functional, organism-based; details: time 11.5 day
Rattus norvegicus [18] = assay: Hypolipidemic activity against dexamethasone-induced sc dosed Wistar rat model assessed as decrease in serum LDL-c level administered once daily for 11 days and fasted for 12 hrs at end of the experimental period; format: functional, organism-based; details: time 11.0 day
Rattus norvegicus [19] = assay: Antidiabetic activity against dexamethasone-induced sc dosed Wistar rat model assessed as decrease in serum VLDL level administered once daily for 11 days and fasted for 12 hrs at end of the experimental period; format: functional, organism-based; details: time 11.5 day
Rattus norvegicus [20] = assay: Antidiabetic activity against dexamethasone-induced sc dosed Wistar rat model assessed as decrease in serum glucose level administered once daily for 11 days and fasted for 12 hrs at end of the experimental period; format: functional, organism-based; details: time 11.5 day
Rattus norvegicus [21] = assay: Effect on serum ALT level in dexamethasone-induced sc dosed Wistar rat model administered once daily for 11 days and fasted for 12 hrs at end of the experimental period by biochemical analysis; format: functional, organism-based; details: time 11.5 day
Rattus norvegicus [22] = assay: Effect on serum AST level in dexamethasone-induced sc dosed Wistar rat model administered once daily for 11 days and fasted for 12 hrs at end of the experimental period by biochemical analysis; format: functional, organism-based; details: time 11.5 day

O=C(CN1C(=O)S/C(=C\c2cccs2)C1=O)Nc1cccc(C(F)(F)F)c1
Activity (C2C12 [1]): Non-Toxic
Activity (Rattus norvegicus [2]): Active
Activity (Rattus norvegicus [3]): Active
Activity (C2C12 [4]): Dose-Dependent Effect
Activity (Rattus norvegicus [5]): Active
Activity (Rattus norvegicus [6]): Active
Activity (Rattus norvegicus [7]): Active
Activity (Rattus norvegicus [8]): Active
Activity (Rattus norvegicus [9]): Active
Activity (Rattus norvegicus [10]): Active
Activity (C2C12 [11]): Active
Activity (Rattus norvegicus [12]): Active

CCc1ccc(CCOc2ccc(CC3SC(=O)NC3=O)cc2)nc1 (stereo unspecified)
Activity (C2C12 [13]): Active

O=C(CN1C(=O)S/C(=C\c2cccs2)C1=O)Nc1cc(Cl)c(Cl)cc1Cl
Activity (C2C12 [1]): Non-Toxic
Activity (Rattus norvegicus [2]): Active
Activity (Rattus norvegicus [3]): Active
Activity (C2C12 [4]): Dose-Dependent Effect
Activity (Rattus norvegicus [5]): Active
Activity (Rattus norvegicus [6]): Active
Activity (Rattus norvegicus [7]): Active
Activity (Rattus norvegicus [8]): Active
Activity (Rattus norvegicus [9]): Active
Activity (Rattus norvegicus [10]): Active
Activity (C2C12 [11]): Active
Activity (Rattus norvegicus [12]): Active

Cc1c(Cl)cccc1NC(=O)CN1C(=O)S/C(=C\c2cccs2)C1=O
Activity (Rattus norvegicus [14]): Active
Activity (C2C12 [1]): Non-Toxic
Activity (Rattus norvegicus [15]): Active
Activity (Rattus norvegicus [16]): Active
Activity (Rattus norvegicus [17]): Active
Activity (Rattus norvegicus [18]): Active
Activity (Rattus norvegicus [19]): Active
Activity (Rattus norvegicus [20]): Active
Activity (Rattus norvegicus [21]): Active
Activity (Rattus norvegicus [22]): Active
Activity (C2C12 [11]): Active
